From patent US6649628B1, “N-[2-hydroxy-3-(1-piperidinyl)propoxy]pyridine-1-oxide-3-carboximidoyl chloride and its use in the treatment of insulin resistance” (Biorex Kutato es Fejleszto RT, priority 1999, dated 2003)
Marks after values point to notes of the source that are not given here.

System: STZ diabetic Wistar rats
Assay: Preliminary test: N-oxide derivatives of bimoclomol on motor and sensor nerve conduction velocity deficit
Format: in vivo, rat
Details: for Improvement of nerve conduction velocity (%) motor (MNCV) / Improvement of nerve conduction velocity (%) sensor (SNCV): 5 mg/kg
Experimental: In a preliminary test the effectiveness of the three N-oxide derivatives of bimoclomol on motor and sensor neuropathy in STZ diabetic Wistar rats were studied. The effectiveness of the three bimoclomol N-oxide derivatives in improving the peripheral motor and sensor nerve conduction velocity deficit caused by streptozotocine-induced diabetes was determined with use of the method described in detail in Experiment 2.
(Graphpad Instat, San Diego, Calif.).

SMILES	Improvement of nerve conduction velocity (%) motor (MNCV)	Improvement of nerve conduction velocity (%) sensor (SNCV)	effect on the motor and sensor neuropathy compared with bimoclomol (N-oxide derivatives 5 mg/kg vs bimoclomol 20 mg/kg)
[O-][n+]1cccc(C(Cl)=NOCC(O)C[N+]2([O-])CCCCC2)c1 (centres unmarked) [double N-oxide derivative of bimoclomol]	25,9* %	29,1** %	
[O-][n+]1cccc(C(Cl)=NOCC(O)CN2CCCCC2)c1 (centres unmarked) [N-[2-hydroxy-3-(1-piperidinyl)-1-propoxy]-pyridine-1-oxide-3-carboximidoyl chloride]	66,5%	63,4%	equivalent with bimoclomol
